The first assay has as its system RERF-LC-KJ. The assay is described as follows: relative viability (nuclei count vs DMSO), 5 days (fraction); higher = more cells survive. Particulars: first compound 0.8 µM. The method, boiled down:
(§1)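 Values are medians from duplicate plates. Each reflects relative viability, defined as the nuclei count of treated wells over that of vehicle wells. Lung cancer cell lines in 1536-well plates were pin-tool dosed one day after seeding with one drug alone or with a fixed anchor-drug dose plus five library-drug doses (not always all listed) in √10 steps, then fixed, stained and imaged at 4× after 5 days.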
Take `Nc1cccc2c1CN(C1CCC(=O)NC1=O)C2=O` (stereo unspecified) [Lenalidomide] + COc1cccc2cc(-c3nc([C@H]4CC[C@H](C(=O)O)CC4)n4ncnc(N)c34)[nH]c12 [OSI-027] (partner 0.5 µM): the relative viability was determined as 0.615.

The same assay, now with this note: first compound 2.53 µM.
With `Nc1cccc2c1CN(C1CCC(=O)NC1=O)C2=O` (stereo unspecified) [Lenalidomide] + N=C(N)NC(=N)NCCc1ccccc1 [Phenformin] (partner 250 µM), the relative viability is 0.431.

The molecule `Nc1cccc2c1CN(C1CCC(=O)NC1=O)C2=O` (stereo unspecified) [Lenalidomide] + Cc1cc(Nc2cc(N3CCN(C)CC3)nc(Sc3ccc(NC(=O)C4CC4)cc3)n2)n[nH]1 [Tozasertib] (partner 0.1 µM) registered a relative viability of 0.515.

In turn, `Nc1cccc2c1CN(C1CCC(=O)NC1=O)C2=O` (stereo unspecified) [Lenalidomide] + CC(=O)c1c(C)c2cnc(Nc3ccc(N4CCNCC4)cn3)nc2n(C2CCCC2)c1=O [Palbociclib] (partner 0.5 µM) returned a relative viability of 1.21.

`Nc1cccc2c1CN(C1CCC(=O)NC1=O)C2=O` (stereo unspecified) [Lenalidomide] + O=C(CCCCCCC(=O)Nc1ccccc1)NO [Vorinostat] (partner 1 µM) yielded a relative viability of 0.71.

The molecule `Nc1cccc2c1CN(C1CCC(=O)NC1=O)C2=O` (stereo unspecified) [Lenalidomide] + COc1cccc2cc(-c3nc([C@H]4CC[C@H](C(=O)O)CC4)n4ncnc(N)c34)[nH]c12 [OSI-027] (partner 0.5 µM) had a relative viability of 0.643.

The assay is the same for the next values; noted with them: first compound 8 µM.
In the case of `Nc1cccc2c1CN(C1CCC(=O)NC1=O)C2=O` (stereo unspecified) [Lenalidomide] + N=C(N)NC(=N)NCCc1ccccc1 [Phenformin] (partner 250 µM), the relative viability was 0.441.

`Nc1cccc2c1CN(C1CCC(=O)NC1=O)C2=O` (stereo unspecified) [Lenalidomide] + Cc1cc(Nc2cc(N3CCN(C)CC3)nc(Sc3ccc(NC(=O)C4CC4)cc3)n2)n[nH]1 [Tozasertib] (partner 0.1 µM) registered a relative viability of 0.568.

`Nc1cccc2c1CN(C1CCC(=O)NC1=O)C2=O` (stereo unspecified) [Lenalidomide] + CC(=O)c1c(C)c2cnc(Nc3ccc(N4CCNCC4)cn3)nc2n(C2CCCC2)c1=O [Palbociclib] (partner 0.5 µM) had a relative viability of 1.03.

On to `Nc1cccc2c1CN(C1CCC(=O)NC1=O)C2=O` (stereo unspecified) [Lenalidomide] + O=C(CCCCCCC(=O)Nc1ccccc1)NO [Vorinostat] (partner 1 µM), for which the relative viability amounted to 0.686.

In turn, `Nc1cccc2c1CN(C1CCC(=O)NC1=O)C2=O` (stereo unspecified) [Lenalidomide] + COc1cccc2cc(-c3nc([C@H]4CC[C@H](C(=O)O)CC4)n4ncnc(N)c34)[nH]c12 [OSI-027] (partner 0.5 µM) showed a relative viability of 0.644.

The test system of a further assay is SK-LU-1. Described as above. The settings on record: first compound 0.253 µM. The method, boiled down:
as §1
Turning to `Nc1cccc2c1CN(C1CCC(=O)NC1=O)C2=O` (stereo unspecified) [Lenalidomide] + N=C(N)NC(=N)NCCc1ccccc1 [Phenformin] (partner 250 µM), the relative viability was found to be 0.539.

`Nc1cccc2c1CN(C1CCC(=O)NC1=O)C2=O` (stereo unspecified) [Lenalidomide] + Cc1cc(Nc2cc(N3CCN(C)CC3)nc(Sc3ccc(NC(=O)C4CC4)cc3)n2)n[nH]1 [Tozasertib] (partner 0.1 µM) registered a relative viability of 0.376.

For `Nc1cccc2c1CN(C1CCC(=O)NC1=O)C2=O` (stereo unspecified) [Lenalidomide] + CC(=O)c1c(C)c2cnc(Nc3ccc(N4CCNCC4)cn3)nc2n(C2CCCC2)c1=O [Palbociclib] (partner 0.5 µM), the relative viability is 0.366.

`Nc1cccc2c1CN(C1CCC(=O)NC1=O)C2=O` (stereo unspecified) [Lenalidomide] + O=C(CCCCCCC(=O)Nc1ccccc1)NO [Vorinostat] (partner 1 µM) displayed a relative viability of 0.763.

`Nc1cccc2c1CN(C1CCC(=O)NC1=O)C2=O` (stereo unspecified) [Lenalidomide] + COc1cccc2cc(-c3nc([C@H]4CC[C@H](C(=O)O)CC4)n4ncnc(N)c34)[nH]c12 [OSI-027] (partner 0.5 µM) displayed a relative viability of 0.313.

Still in this assay, the particulars now being: first compound 0.8 µM.
Molecule `Nc1cccc2c1CN(C1CCC(=O)NC1=O)C2=O` (stereo unspecified) [Lenalidomide] + N=C(N)NC(=N)NCCc1ccccc1 [Phenformin] (partner 250 µM) came in with a relative viability of 0.595.

Molecule `Nc1cccc2c1CN(C1CCC(=O)NC1=O)C2=O` (stereo unspecified) [Lenalidomide] + Cc1cc(Nc2cc(N3CCN(C)CC3)nc(Sc3ccc(NC(=O)C4CC4)cc3)n2)n[nH]1 [Tozasertib] (partner 0.1 µM) had a relative viability of 0.304.

As for `Nc1cccc2c1CN(C1CCC(=O)NC1=O)C2=O` (stereo unspecified) [Lenalidomide] + CC(=O)c1c(C)c2cnc(Nc3ccc(N4CCNCC4)cn3)nc2n(C2CCCC2)c1=O [Palbociclib] (partner 0.5 µM), the relative viability worked out at 0.342.

The molecule `Nc1cccc2c1CN(C1CCC(=O)NC1=O)C2=O` (stereo unspecified) [Lenalidomide] + O=C(CCCCCCC(=O)Nc1ccccc1)NO [Vorinostat] (partner 1 µM) gave a relative viability of 0.877.

`Nc1cccc2c1CN(C1CCC(=O)NC1=O)C2=O` (stereo unspecified) [Lenalidomide] + COc1cccc2cc(-c3nc([C@H]4CC[C@H](C(=O)O)CC4)n4ncnc(N)c34)[nH]c12 [OSI-027] (partner 0.5 µM): the relative viability came to 0.361.

The assay is the same for the next values; noted with them: first compound 2.53 µM.
Molecule `Nc1cccc2c1CN(C1CCC(=O)NC1=O)C2=O` (stereo unspecified) [Lenalidomide] + N=C(N)NC(=N)NCCc1ccccc1 [Phenformin] (partner 250 µM) returned a relative viability of 0.693.

On to `Nc1cccc2c1CN(C1CCC(=O)NC1=O)C2=O` (stereo unspecified) [Lenalidomide] + Cc1cc(Nc2cc(N3CCN(C)CC3)nc(Sc3ccc(NC(=O)C4CC4)cc3)n2)n[nH]1 [Tozasertib] (partner 0.1 µM), for which the relative viability was 0.399.

Regarding `Nc1cccc2c1CN(C1CCC(=O)NC1=O)C2=O` (stereo unspecified) [Lenalidomide] + CC(=O)c1c(C)c2cnc(Nc3ccc(N4CCNCC4)cn3)nc2n(C2CCCC2)c1=O [Palbociclib] (partner 0.5 µM), the relative viability was determined as 0.413.

For the molecule `Nc1cccc2c1CN(C1CCC(=O)NC1=O)C2=O` (stereo unspecified) [Lenalidomide] + O=C(CCCCCCC(=O)Nc1ccccc1)NO [Vorinostat] (partner 1 µM), the relative viability was 0.909.

For `Nc1cccc2c1CN(C1CCC(=O)NC1=O)C2=O` (stereo unspecified) [Lenalidomide] + COc1cccc2cc(-c3nc([C@H]4CC[C@H](C(=O)O)CC4)n4ncnc(N)c34)[nH]c12 [OSI-027] (partner 0.5 µM), the relative viability was found to be 0.36.

The assay is the same for the next values; noted with them: first compound 8 µM.
In turn, `Nc1cccc2c1CN(C1CCC(=O)NC1=O)C2=O` (stereo unspecified) [Lenalidomide] + N=C(N)NC(=N)NCCc1ccccc1 [Phenformin] (partner 250 µM) yielded a relative viability of 0.472.

For the molecule `Nc1cccc2c1CN(C1CCC(=O)NC1=O)C2=O` (stereo unspecified) [Lenalidomide] + Cc1cc(Nc2cc(N3CCN(C)CC3)nc(Sc3ccc(NC(=O)C4CC4)cc3)n2)n[nH]1 [Tozasertib] (partner 0.1 µM), the relative viability came out at 0.392.

With `Nc1cccc2c1CN(C1CCC(=O)NC1=O)C2=O` (stereo unspecified) [Lenalidomide] + CC(=O)c1c(C)c2cnc(Nc3ccc(N4CCNCC4)cn3)nc2n(C2CCCC2)c1=O [Palbociclib] (partner 0.5 µM), the relative viability amounted to 0.354.

On to `Nc1cccc2c1CN(C1CCC(=O)NC1=O)C2=O` (stereo unspecified) [Lenalidomide] + O=C(CCCCCCC(=O)Nc1ccccc1)NO [Vorinostat] (partner 1 µM), for which the relative viability worked out at 0.759.

`Nc1cccc2c1CN(C1CCC(=O)NC1=O)C2=O` (stereo unspecified) [Lenalidomide] + COc1cccc2cc(-c3nc([C@H]4CC[C@H](C(=O)O)CC4)n4ncnc(N)c34)[nH]c12 [OSI-027] (partner 0.5 µM) had a relative viability of 0.421.

Values taken from the supplement of paper PMC10307832.
